Experimental data reported in US20090028842A1, “Dekkera/Brettanomyces Cytosine Deaminases And Their Use” (ZGene A/S, priority 2005, published 2009).

What was measured:
Metschnikowia reukauffii = assay: Growth of control strain Metschnikowia reukauffii on plates containing 5-FC; type: cell-based; details: 0.1 or 0.36 μM 5-FC, 5 days
Method: (§1) The yeast strains used in this work are: Dekkera bruxellensis (Y872, CBS 1943), D. bruxellensis (Y879, CBS 2499), D. bruxellensis (CBS 4480, CBS 4481), D. anomala (CBS 76, CBS 77, CBS 1938, CBS 1947), Brettanomyces nanus (CBS 1945), B. nanus (CBS 1955, CBS 1956), M. reukauffii (CBS 2266), B. custersianus (CBS 4805), B. naardensis (CBS 6042), S. kluyveri Y057 (NRRL Y-12651), and S. cerevisiae Y051 (NRRL Y-12632). Yeast strains were grown at 25° in YPD medium (1% yeast extract, 2% bacto peptone, 2% glucose) or in defined minimal (SD) medium (1% succinic acid, 0.6% NaOH, 2% glucose, 0.67% yeast nitrogen base without amino acids from Difco). When indicated, (NH4)2SO4 was replaced with 0.1% cytosine as the sole nitrogen source giving N-minimal medium. The growth rate was determined in liquid medium by following the optical density at 600 nm. The E. coli strain TOP10 (Invitrogen) was used for plasmid amplification. Bacteria were grown at […] in Luria-Bertani medium supplemented with 100 mg/l of ampicillin for selection. The E. coli BL21-DE3 (Invitrogen) strain was used for heterologous protein expression.
(§2) In FIG. 2 it can be seen that all the tested Dekkera/Brettanomyces strains are particularly susceptible to 5-FC, as growth is inhibited at 0.1 or at least at 0.36 μM 5.FC. For comparison, S. cerevisiae (FIG. 1) and M. reukauffii (FIG. 2) strains are included.

U87MG = assay: XTT cell proliferation assay, untransduced U87MG; type: cell-based; details: Homo sapiens, U-87 MG, 96-120 hours of drug exposure
Method: (§3) Cancer cells were purchased from the American Type Culture Collection. Cells were cultured in RPMI, E-MEM or D-MEM with 10% (v/v) Australian originated foetal calf serum and 1 ml/l of gentamicin. Cells were grown at 37° C. in a humidified incubator with a gas phase of 5% CO2. The cells were transduced with the retrovirus containing medium mixed with 5 μg/ml of Polybrene, incubated for 48 hours and then cultured continuously for 3 weeks in the presence of 300-400 μg/ml Genetecin® (Life Technologies Inc.).
(§4) Cells were plated at densities range of 1.500-3.500 cells/well in 96-well plates coated with poly-L-lysine (Sigma). 5-FC was added after 24 hours of incubation. Each experiment was performed in four replicates. Cell survival was assayed after 96-120 hours of drug exposure by XTT cell proliferation kit (Roche). The data was corrected for background media-only absorbance where after the 50% cell killing drug concentration (IC50 value) was calculated using SigmaPlot® (SPSS Science, Dyrberg Trading, Denmark).

MCF7 = assay: XTT cell proliferation assay, untransduced MCF7; type: cell-based; details: Homo sapiens; untransduced MCF7, 96-120 hours of drug exposure
Method: as §3, §4

[1] = tested on: Dekkera/Brettanomyces strains; assay: Growth of various Dekkera/Brettanomyces strains on plates containing 5-FC; type: cell-based; details: all tested Dekkera and Brettanomyces species, after 5 days
Method: as §1, §2

[2] = tested on: MCF7 cell line transduced with pLCXSN; assay: XTT cell proliferation assay, MCF7 transduced with empty vector pLCXSN; type: cell-based; details: Homo sapiens
Description: (§5) ORFs were amplified with Accuzyme DNA polymerase (Bioline) using primers with designed flanking restriction enzyme sites and containing Kozak sequence at 5′ end. D. bruxellensis CD constructs were cloned into the retrovirus vector pLCXSN. The vector is based on pLXSN (Clontech) to which the CMV promoter has been cloned into the polylinker site to form pLCXSN. The constructs obtained was named DbCDCvir (PZG917). pLCXSN alone was used as a control. The plasmids were purified using the Qiagen plasmid kit (QIAGEN) and DNA sequences were verified by DNA sequence determination. HE 293 T packaging cells (ATCC CRL-11268) were cultured at 37° C. in OPTIMEM 1 medium (Life Technologies, Inc.) The constructed retrovirus vectors were transfected into the packaging cells using LipofectAMINE PLUS (Life Technologies, Inc.) according to the protocol provided by the supplier. The medium from the transfected cells was collected 48 hours after transfection, filtered through a 0.45 μm filter, pelleted by ultracentrifugation (50.000×g, 90 minutes at 4° C.) and dissolved in D-MEM.
Cancer cells were purchased from the American Type Culture Collection. Cells were cultured in RPMI, E-MEM or D-MEM with 10% (v/v) Australian originated foetal calf serum and 1 ml/l of gentamicin. Cells were grown at 37° C. in a humidified incubator with a gas phase of 5% CO2. […]

PANC-1 = assay: XTT cell proliferation assay, untransduced PANC-1; type: cell-based; details: Homo sapiens; untransduced PANC-1, 96-120 hours of drug exposure
Method: as §3, §4

HT-29 = assay: XTT cell proliferation assay, untransduced HT-29; type: cell-based; details: Homo sapiens; untransduced HT-29, 96-120 hours of drug exposure
Method: as §3, §4

S. cerevisiae = assay: Growth of S. cerevisiae on plates containing 5-FC; type: cell-based, Saccharomyces cerevisiae
Method: as §1
(§6) The majority of yeast can utilize cytosine as sole source of nitrogen by using CD to cleave cytosine to ammonia (a source of nitrogen) and uracil. To test for the ability of Dekkera yeast for growth on cytosine, Y872 was spotted on N-minimal media containing 0.1% cytosine. […]

[3] = tested on: MCF7 cell line transduced with Db CD gene; assay: XTT cell proliferation assay, MCF7 transduced with D. bruxellensis cytosine deaminase; type: cell-based, human
Description: as §5, §3, §4

D. bruxellensis = assay: Growth of D. bruxellensis on plates containing 5-FC; type: cell-based, Dekkera bruxellensis; details: after 5 days
Method: as §1, §6

[4] = tested on: Dekkera/Brettanomyces yeasts; assay: Sensitivity of Dekkera/Brettanomyces yeasts to G418; type: cell-based; details: addition of 200 μg/ml; almost all yeasts tested
Description: There are no suitable auxotrophic markers or efficient transformation system to work with these yeasts. […] Using degenerative primers described in this study it was not possible to amplify CD genes from D. anomala, B. nanus, B. naardenensis and B. custersianus probably due to presence of introns in these genes. Therefore we designed a selection system based on Dekkera bruxellensis CD1 promoter and G418 resistance marker coding for 3′aminoglycoside-phosphotransferase. G418 is a ribosomal inhibitor in many eukaryotic cells but many yeast species are not sensitive to G418. However, almost all Dekkera/Brettanomyces yeasts tested were sensitive to addition of 200 μg/ml. Since G418 cannot be used in medium with high salt concentration (like SD medium) use of CD1 promoter which had activity in YPD medium (low salt) will permit expression of G418 gene and ultimately lead to resistance to G418 and enable direct selection of yeast colonies containing this gene. Cloning strategy was as described: pYES2 vector was cut with AgeI/HindIII restriction enzymes and fragment of app. 440 bp containing GAL promoter was removed. Promoter of 1075 bp from Y872 CD1 gene was cloned into AgeI/HindIII site resulting in pDbCD1p plasmid. The ORF from G418 gene (Acc. nr. S78175) was cloned under control of CD1 promoter into BamHI/EcoRI site. […]

[5] = type: physicochemical
Method: Purified and his-tagged CD from D. bruxellensis and S. cerevisiae CD were assayed after different periods of storage at 50° C. and 37° C. (FIGS. 8a and 8b). Indeed, D. bruxellensis CD was extremely stable at 50° C. when compared to S. cerevisiae CD which lost all activity after only 4 minutes. Half life for D. bruxellensis CD at 50° C. was app. 3 hours (FIG. 8a). […] It should be observed that the temperature stability of the proteins without his-tags could be different.

[6] = CD activities with purified his-tagged proteins; type: biochemical; details: purified his-tagged protein, 37° C., cytosine 500 μM, triplicates, mean with standard deviation
Method: For recombinant protein expression, E. coli cells were grown to a density of A600 nm=0.5-0.6 in LB medium supplemented with 100 μg/ml ampicillin, and the expression was induced with 10 μM IPTG for 8 h at 25° C. The cells were harvested by centrifugation, and the pellet was resuspended in 25 ml ice-cold binding buffer A […] (50 mM sodium phosphate pH 8.0; 300 mM NaCl; 10% glycerol; 25 mM imidazole) containing protease inhibitor cocktail (Complete™-EDTA free from Roche Diagnostics). The cells were homogenized using a French Press, subjected to centrifugation at 12,000×g for 30 minutes (4° C.), filtered through a […] Whatman glass microfiber filter and a […] cellulose acetate filter, and loaded onto a 5 ml Ni^2+-NTA column (Qiagen). […]
Bacteria or cell lines were grown as described, harvested and stored at −80° C. until activity testing. […] Cytosine deaminase activities were determined spectrophotometrically by monitoring the absorbance decrease at 286 nm (Δε286=−0.68 mM^−1 cm^−1) resulting from the deamination of cytosine to uracil. […]
To characterize the substrate specificities of yeast CDs, purified proteins were measured at 37° C. and fixed cytosine concentration and assays was performed as described in Example 1 (Enzyme assays) (Table 3).

Nc1nc(=O)[nH]cc1F [5-FC, 5-fluorocytosine]
Growth on plates with 5-FC (Metschnikowia reukauffii): not inhibited
IC50 (U87MG): 2 to 5 mM
IC50 (MCF7): 2 to 5 mM
5-FC concentration at which growth inhibition was observed [1]: ≤ 0.36 µM
IC50 [2]: 9.29 mM
IC50 (PANC-1): 2 to 5 mM
IC50 (HT-29): 2 to 5 mM
Growth on plates with 5-FC (S. cerevisiae; S. cerevisiae control strain, 0.1 or 0.36 μM 5-FC, 5 days): not inhibited
5-FC concentration at which growth was first inhibited (S. cerevisiae; S. cerevisiae, plates, after 5 days): 1 µM
IC50 ([3]; Homo sapiens, MCF7, MCF7 transduced with D. bruxellensis cytosine deaminase): 2.4 mM
IC50 ([3]; MCF7 transduced with D. bruxellensis cytosine deaminase): 2.44 mM
sensitivity increase towards 5-FC ([3]; MCF7 with Db CD versus empty vector): 4 fold
5-FC concentration at which growth inhibition was observed (D. bruxellensis): 0.1 µM
5-FC concentration at which there was no visible growth (D. bruxellensis): 0.36 µM

CN[C@@H]1[C@@H](O)[C@@H](O[C@@H]2[C@@H](O)[C@H](O[C@H]3O[C@H]([C@@H](C)O)[C@@H](O)[C@H](O)[C@H]3N)[C@@H](N)C[C@H]2N)OC[C@]1(C)O [G418]
Sensitivity to G418 [4]: sensitive

B1: Db CD (PZG893): cytosine deaminase from Dekkera bruxellensis (SEQ ID NO 2), recombinant his-tagged protein (protein, listed as Dekkera bruxellensis)
chain: MTFDDKLGMQVAFEEAKKGFEEGGVPIGACLLTEEGKVIGRGHNMRVQKSSATLHGETSCFENAGRLPASVYKKCTLYTTLSPCSMCSGAALLFKIPRIVLGENETFVGAEKWLESNGVEVVNVHNKECKNLMDRFIKEKPEVWNEDIGE
modifications: His tag
Half life [5]: ~3 h
Stability compared to S. cerevisiae CD [5]: more stable
CD activity, Cytosine [6]: 176.5 ± 5.3 U/mg/min
